Results as given in patent US20190141999A1, “Methods For Repelling Blood-Sucking And Biting Insects, Ticks And Mites” (The United States of America, as represented by the …, priority 2017, published 2019).
Like-named read-outs stand apart in the source and are kept apart here. Marks after values point to notes of the source that are not given here.

Assays:
bed bugs [1] = assay: bed bug petri-dish repellency assay; type: in vivo, Cimex letularius
Source text: (§1) Bed bugs chose to rest on control tents (hexane-treated) when given a choice of coconut FFA-treated tent (FIG. 9C). This effect lasted on tents treated 14 d earlier.

bed bugs [2] = assay: bed bug choice among treated tents (harborages); type: in vivo, Cimex letularius; conditions: control (hexane) vs treated tent
Source text: as §1

Aedes aegypti [3] = assay: minimum effective dosage for biting protection; type: in vivo; conditions: N = 3-5
Aedes aegypti [4] = assay: arm-in-cage assay, biting protection; type: in vivo; conditions: 1st hour, N = 3
stable flies [5] = assay: stable fly laboratory repellent bioassay (blood-feeding); type: in vivo, Stomoxys calcitran
Protocol: Comparisons of coconut oil, coconut FFA, and lauric acid against stable fly blood-feeding: Using our modified stable fly laboratory repellent bioassay, we tested coconut oil, coconut FFA and its major compositional compound, lauric acid, for their repellency against stable flies.
In FIG. 11, repellent activity tests were conducted under the laboratory conditions (22° C., 50% RH), 48-hr starved stable flies were used, and a total of at least 5 replicates were accumulated.

stable flies [6] = conditions: for knock-down times: 20 mg and 10 mg doses; for knock-down: lowest dose, 2 mg
stable flies [7] = assay: stable fly laboratory repellent bioassay (blood-feeding); type: in vivo, Stomoxys calcitran; conditions: for repellency of C8 to C18 acids: FIG. 3
horn flies [8] = assay: horn fly blood-feeding repellency; type: in vivo, Haematobia irritans
Protocol: Comparisons of coconut FFA, methyl laurate, and lauric acid against horn fly blood-feeding: We also tested coconut FFA and its major compositional compound, lauric acid, for their repellency against horn flies. […] F=41.5 P<0.0001). Dose response curves of repellency against horn flies from coconut FFA and lauric acid: […] F=4.08-4.38 P<0.05). […] A 50% repellency was shown when the dose was reduced to 2 mg. No significant differences in the least repellency concentrations were found among the two repellent candidates, with average 7 mg of both coconut FFA and lauric acid was needed.

horn flies [9] = assay: mortality of horn flies after exposure; type: in vivo
Source text: The present invention discloses a blood-sucking insects and biting insects (e.g., stable flies, horn flies, ticks and mites repellent compounds (e.g., lauric acid), identified from coconut oil that is listed as a GRAS (Generally Recognized as Safe, http://www.fda.gov/Food/IngredientsPackagingLabeling/GRAS/) substance. Coconut oil is an edible oil extracted from the kernel or meat of mature coconuts harvested from the coconut palm (https://en.wikipedia.org/wiki/Coconut_oil). It contains a high level of low molecular weight saturated fatty acids (Gervajio, G. C., Fatty acids and derivatives from coconut oil, IN: Bailey's Industrial Oil and Fat Products, Sixth Edition, Six Volume Set, Fereidoon Shahidi, Ed., 2005, John Wiley & Sons, Inc.). […] Both have over 2-weeks longevity deterring stable fly feeding (>90% repellency). […] This compound is listed as one of CFR 21 products that is permitted for direct addition to food for human consumption by FDA (Code of Federal Regulations, Title 21). […]

ticks = assay: tick repellency (species not stated); type: in vivo; conditions: at 1.25%

With `CCN(CC)C(=O)c1cccc(C)c1` [DEET, N,N-diethyl-m-toluamide, reference compound] the repellency remaining (bed bugs [1]; 7th day after application (FIG. 9B)) was “below 40%”, the “choice of control tents over treated tents” value (bed bugs [2]) was “no longer significant at 7 d and 14 d” and the “Minimum effective dosage required for biting protection” value (shortened to “Minimum effective dosage required”) (Aedes aegypti [3]) was 0.047 ± 0.000 mg/cm^2. The biting protection (Aedes aegypti [4]; 6.25%) was 58-88* %, the biting protection (Aedes aegypti [4]; 12.50%) was 77-97* % and the biting protection (Aedes aegypti [4]; 25% (0.42 mg/cm^2)) was “≈93* %”.

For `CCCCCCCC(=O)OC` [C8 Me, Methyl octanoate], the “repellency against stable flies” value (stable flies [5]; 2 mg dose) was “strongest repellency”, the “repellency against stable flies” value (stable flies [5]; 20 mg dosage) was 100% and the “knock-down times” value (stable flies [6]) was “significantly shorter knock-down times”. For the same compound, the knock-down (stable flies [6]) was “no knock-down”.

For `CCCCCCCC(=O)O` [C8 acid, Caprylic acid], the “repellency of C8 to C18 acids” value (stable flies [7]; dose not stated) was over 80%.

With `CCCCCCCCCC(=O)OC` [C10 Me, Methyl decanoate] the “repellency against stable flies” value (stable flies [5]; 20 mg dosage) was 100%, the “knock-down times” value (stable flies [6]) was “significantly shorter knock-down times” and the mortality (stable flies [6]; in vivo) was about 100%. For the same compound, the knock-down time (stable flies [6]; stable flies) was “less than 3 mins”, the “toxic effect” value (stable flies [6]; stable flies) was “most active toxicant” and the “time to mortality after exposure” value (stable flies [6]; stable flies, listed as 10 Me ester) was 10 to 15 min. The “time to mortality after exposure” value (stable flies [6]; stable flies, listed as C10 methyl ester) was under 10 min.

With `CCCCCCCCCCCCC(=O)O` [C13] the “repellency of C8 to C18 acids” value (stable flies [7]; dose not stated) was “strongest repellency”.

For `CCCCCCCC/C=C\CCCCCCCC(=O)OC` [methyl oleate], the “repellency against stable flies” value (stable flies [5]; 20 mg dosage) was “did not showed significant repellency”.

`CCCCCCCCCCCC(=O)O` [lauric acid] was tested, and the effectiveness duration (bed bugs [1]; at 5%) was “up to 24 hours”, the repellency against bedbugs (bed bugs [1]; at 5%) was 100% and the “repellency against horn flies” value (horn flies [8]; 2 mg dose) was 50%. The “least repellency concentration, average amount needed” value (horn flies [8]; in vivo) was 7 mg, the “Minimum effective dosage required” value (Aedes aegypti [3]) was 0.75 mg/cm^2 and the “Minimum effective dosage required” value (Aedes aegypti [3]; listed as Lauric acid) was 0.750 ± 0.000 mg/cm^2. It also gave a biting protection (Aedes aegypti [4]; 6.25%) of 20 ± 0%, a biting protection (Aedes aegypti [4]; 12.50%) of 20 ± 0% and a biting protection (Aedes aegypti [4]; 25% (0.42 mg/cm^2)) of 73%. The biting protection (Aedes aegypti [4]; 25% (0.42 mg/cm^2), listed as Lauric acid) was 74 ± 6%, the biting protection (Aedes aegypti [4]; 50%) was 60 ± 11% and the “repellency in longevity test” value (stable flies [7]; 2-week longevity test (FIG. 5)) was 94%. The “repellency against stable flies” value (stable flies [5]; 2 mg dose) was “No repellency”, the “LR50 (95% C.I.), least repellency concentration” value (stable flies [5]; in vivo) was 3.69 (3.23-6.53) mg/24 cm^2 and the “LR90 (95%, C.I.), least repellency concentration” value (stable flies [5]; in vivo) was 13.61 (9.11-32.59) mg/24 cm^2. The “average amount needed to achieve 90% repellency” value (stable flies [5]; in vivo) was 13 mg and the “toxic effect” value (stable flies [6]; stable flies) was “no toxic effect”.

In the case of `CCCCCCCCCCCC(=O)OC` [methyl laurate], the “time to mortality after exposure” value (horn flies [9]; horn flies) is reported as 15 to 20 min, the mortality (horn flies [9]; horn flies after exposure) is reported as 100% and the repellency against ticks (ticks) is reported as 100%. The “repellency against stable flies” value (stable flies [7]; 20 mg dosage, listed as C12 Me) was 100%, the “repellency of methyl esters” value (stable flies [7]; initial bioassays, dose not stated) was about 100% and the knock-down (stable flies [6]) was “no knock-down”. The “mean LD” value (stable flies [6]; stable flies) was 11 to 20 min, the “time to mortality after exposure” value (stable flies [6]; stable flies) was 15 to 20 min and the “toxic effect” value (stable flies [6]; stable flies) was “least toxic compound”. For the same compound, the mortality (stable flies [6]; stable flies after exposure) was 100%.

In the case of `CCCCCCCCC(=O)O` [C9], the “repellency of C8 to C18 acids” value (stable flies [7]; dose not stated) is reported as “strongest repellency”.

In the case of `CCCCCCCCCCC(=O)O` [C11], the “repellency of C8 to C18 acids” value (stable flies [7]; dose not stated) is reported as “strongest repellency”.
